pEC50: −log10 of the molar value. “Also recorded” adds a separate entry of the source. Marks after values point to notes of the source that are not given here. Blank lines part the entries; values can stand above or below the compound they belong to.
How the values were obtained:
[1] = tested on: xbp1 upstream promoter; experiment: Transcriptional activation of pGL3-pxbp1 (dual luciferase reporter gene) in IEC-6 cells; assay type: cell-based; conditions: Rattus norvegicus, IEC-6 cells transfected with pGL3-pxbp1, 36 h-48 h, read-out: EC50 of transcriptional activation effect on xbp1 gene
Protocol: (§1) (1) Method: IEC-6 cells in the period of vigorous growth were seed in 48 well plate at a density of 5×10^4 to disperse the cells uniform and then it was placed in a humidifying cell incubator filled with 5% CO2 at 37° C. to incubate. Plasmid transfection (0.6 μg/well) was carried out when the cells confluencing up to 70%-80%. After 4 h, each compound of 1×10^−5 mol/L was added into these wells (n=3), respectively, and incubated for another 36 h-48 h together with existing transfected cells. Luciferase activity detection on test samples was proceeded using dual luciferase report gene detection kit (Promega, USA).
as §1, with “logarithmic phase” for “vigorous growth”, “different concentrations” for “each compound”, “compounds 1, 2, 7, and 10 were” for “1×10^−5 mol/L was”, “added” for “added into these wells”

[2] = tested on: SD rats with acetic acid-induced UC; experiment: Acetic acid-induced acute UC in SD rats; assay type: in vivo
Protocol: (§2) (1) Method: In vivo test was carried out according to the literature: Y. Yoshioka, H. Akiyama, M. Nakano, T. Shoji, T. Kanda, Y. Ohtake, T. Takita, R. Matsuda, T. Maitani. Orally administered apple procyanidins protect against experimental inflammatory bowel disease in mice, international immunopharmacology, 2008, 1802-1807.
Disease activity index (DAI) is evaluated by weight loss, shape of stool, hematochezia, and other indicators; macroscopic score of colon tissue is evaluated by intestinal mucosal hyperemia, edema of intestinal wall, ulcer size, and other indicators. The lower the DAI and macroscopic score is, the more close to the normal physiological state. In Table 1: **p<0.01 when compared with the normal control group; ##p<0.01 when compared with the model group.

[3] = tested on: C57/blc mice with DSS-induced UC; experiment: DSS-induced acute UC in C57/blc mice; assay type: in vivo; conditions: for colon histopathology (inflammatory lesion): HE×200
Protocol: as §2
DAI is evaluated by weight loss, shape of stool, hematochezia, and other indicators; macroscopic score of colon tissue is evaluated by intestinal mucosal hyperemia, edema of intestinal wall, ulcer size, and other indicators. The lower the DAI and macroscopic score is, the more close to the physiological state of the normal animal. In Table 3: **p<0.01 when compared with the normal control group; ##p<0.01 when compared with the model group.

[4] = Table 5, 300 mg/kg, model 3.39 ± 0.64
[5] = Table 5, 300 mg/kg, model 5.69 ± 1.12
[6] = Table 7, 300 mg/kg, model 3.85 ± 0.34
[7] = Table 7, 300 mg/kg, model 5.59 ± 1.01

pEC50 [1]: 6.66
SMILES: CC(=O)CC1c2c(ccc3c2OCO3)C=C2c3cc4c(cc3CCN21)OCO4 (racemic) [Compound 7, (±)-8-acetonyldihydrocoptisine]
macroscopic and histopathological results of colon tissue ([2]; 300 mg/kg): good therapeutic effect on UC
body weight change value compared with before administration (decreased by) ([2]; 300 mg/kg, model group decreased by 19.2%): 10%
macroscopic score ([2]; Table 1, 300 mg/kg): 2.05 ± 0.45##
DAI ([2]; Table 1, 300 mg/kg, model 3.15 ± 0.45): 1.15 ± 0.22##
disease activity index (DAI) inhibitory rate in UC model ([3]; 500 mg/kg): 64%
colon histopathology (inflammatory lesion) ([3]; HD group 500 mg/kg): significant improvement on the colon inflammatory lesion; also recorded: the lesion of inflammatory bowel diseases is more significantly improved
colon histopathology (inflammatory lesion) ([3]; LD group 125 mg/kg): the inflammatory lesions of colon tissue also has a partial remission
colon histopathology (inflammatory lesion) ([3]; MD group 250 mg/kg): the inflammatory lesions of colon tissue also has a partial remission
Body weight (g) x ± SD end ([3]; Table 2, HD 500 mg/kg): 21.57 ± 1.5 g
Body weight (g) x ± SD end ([3]; Table 2, MD 250 mg/kg): 20.54 ± 2.1 g
DAI ([3]; Table 3, HD 500 mg/kg, model 3.33 ± 0.54): 1.33 ± 0.31##
macroscopic score of colon tissue ([3]; Table 3, HD 500 mg/kg, model 5.54 ± 1.23): 2.05 ± 0.28##
DAI ([3]; Table 3, LD 125 mg/kg, model 3.33 ± 0.54): 3.01 ± 0.38
macroscopic score of colon tissue ([3]; Table 3, LD 125 mg/kg, model 5.54 ± 1.23): 4.93 ± 0.61
DAI ([3]; Table 3, MD 250 mg/kg, model 3.33 ± 0.54): 2.01 ± 0.27##
macroscopic score of colon tissue ([3]; Table 3, MD 250 mg/kg, model 5.54 ± 1.23): 3.30 ± 0.66##

pEC50 [1]: 7.33
SMILES: C=C(C(=O)CC)c1c2c(OC)c(OC)ccc2c(C)c2[n+]1CCc1cc3c(cc1-2)OCO3 [Compound 10]

The next lines start with the compound.

SMILES: C1=C2c3cc4c(cc3CCN2Cc2c1ccc1c2OCO1)OCO4 [Compound 1, dihydrocoptisine]
pEC50 [1]: 8.64
disease activity index (DAI) inhibitory rate in UC model ([3]; 300 mg/kg): 69%
Body weight (g) x ± SD end ([3]; Table 4, HD 500 mg/kg): 19.87 ± 1.0 g
Body weight (g) x ± SD end ([3]; Table 4, LD 75 mg/kg): 21.15 ± 1.1 g
Body weight (g) x ± SD end ([3]; Table 4, MD 250 mg/kg): 19.95 ± 1.6 g
DAI [3, 4]: 2.33 ± 0.11##
macroscopic score of colon tissue [3, 5]: 2.66 ± 0.46##
DAI ([3]; Table 5, LD 75 mg/kg, model 3.39 ± 0.64): 2.99 ± 0.14#
macroscopic score of colon tissue ([3]; Table 5, LD 75 mg/kg, model 5.69 ± 1.12): 4.93 ± 0.61
DAI ([3]; Table 5, MD 150 mg/kg, model 3.39 ± 0.64): 1.81 ± 0.27##
macroscopic score of colon tissue ([3]; Table 5, MD 150 mg/kg, model 5.69 ± 1.12): 2.01 ± 0.16##

SMILES: O=C(O)c1cc(/N=N/c2ccc(S(=O)(=O)Nc3ccccn3)cc2)ccc1O [SASP, reference compound]
disease activity index (DAI) inhibitory rate in UC model ([3]; 300 mg/kg): 32%
Body weight (g) x ± SD end ([3]; Table 2, 300 mg/kg): 20.09 ± 0.9 g
DAI ([3]; Table 3, 300 mg/kg, model 3.33 ± 0.54): 2.27 ± 0.43##
macroscopic score of colon tissue ([3]; Table 3, 300 mg/kg, model 5.54 ± 1.23): 3.24 ± 0.77##
Body weight (g) x ± SD end ([3]; Table 4, 300 mg/kg): 21.15 ± 0.6 g
DAI [3, 4]: 2.54 ± 0.23##
macroscopic score of colon tissue [3, 5]: 2.95 ± 0.52##
Body weight (g) x ± SD end ([3]; Table 6, 300 mg/kg): 25.09 ± 0.9 g
DAI [3, 6]: 2.27 ± 0.43##
macroscopic score of colon tissue [3, 7]: 3.24 ± 0.77##
colon histopathology (inflammatory lesion) ([3]; positive drug SASP group): improvement of visible colitis lesions and partial recovery of structure of each layer

SMILES: C1=C2c3cc4c(cc3CCN2Cc2cc3c(cc21)OCO3)OCO4 [Compound 2, dihydropseudocoptisine]
pEC50 [1]: 8.15
disease activity index (DAI) inhibitory rate in UC model ([3]; 300 mg/kg): 80%
Body weight (g) x ± SD end ([3]; Table 6, 300 mg/kg): 26.17 ± 1.5 g
DAI [3, 6]: 1.05 ± 0.26##
macroscopic score of colon tissue [3, 7]: 2.94 ± 0.21##
